Structures can show the parent of a compound that is named as a salt. Each block holds one compound with its values, some of them ahead of it.
How the values were obtained:
[1] = tested on: leukocytes; settings: mice; cited from earlier work
[2] = target: T1, glucocorticoid receptor (Homo sapiens, UniProt P04150); test: Glucocorticoid receptor agonist assay
T1 sequence (P04150 1-777): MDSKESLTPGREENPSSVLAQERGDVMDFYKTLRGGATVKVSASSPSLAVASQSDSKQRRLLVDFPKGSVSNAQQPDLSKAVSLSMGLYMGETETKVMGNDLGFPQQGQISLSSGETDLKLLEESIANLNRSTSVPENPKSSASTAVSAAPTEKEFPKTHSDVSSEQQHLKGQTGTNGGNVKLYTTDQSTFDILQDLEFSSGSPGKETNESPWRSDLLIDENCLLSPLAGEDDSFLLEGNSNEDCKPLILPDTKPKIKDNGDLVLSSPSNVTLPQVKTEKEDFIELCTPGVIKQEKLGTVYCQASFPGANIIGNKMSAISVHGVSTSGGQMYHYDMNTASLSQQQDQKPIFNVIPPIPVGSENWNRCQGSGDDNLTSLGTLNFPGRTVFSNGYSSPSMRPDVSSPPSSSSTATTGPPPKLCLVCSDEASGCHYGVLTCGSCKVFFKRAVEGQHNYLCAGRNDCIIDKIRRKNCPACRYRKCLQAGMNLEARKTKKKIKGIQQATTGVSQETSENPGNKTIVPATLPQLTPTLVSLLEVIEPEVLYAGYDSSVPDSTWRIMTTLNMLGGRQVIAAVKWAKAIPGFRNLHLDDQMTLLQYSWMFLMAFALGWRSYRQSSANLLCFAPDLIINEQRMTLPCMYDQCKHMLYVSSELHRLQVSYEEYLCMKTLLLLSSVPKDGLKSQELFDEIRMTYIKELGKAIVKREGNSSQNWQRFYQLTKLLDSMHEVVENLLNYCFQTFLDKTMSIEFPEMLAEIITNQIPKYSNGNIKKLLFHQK

[3] = target: adenosine A2A receptor (Homo sapiens, UniProt P29274); test: Adenosine A2A receptor agonist assay
[4] = Rat PK of LA1 free acid, first experiment (2-hydroxypropyl-β-cyclodextrin dose solution); format: in vivo, Sprague Dawley (SD) rats; settings: 30% 2-hydroxypropyl-β-cyclodextrin in PBS
Procedure: In a first experiment, the dose solution was prepared in 30% w:v 2-hydroxypropyl-β-cyclodextrin prepared in PBS at 2 mg/kg. Improved bioavailability was needed.

[5] = mice; cited from earlier work
[6] = rats; cited from earlier work
[7] = in vivo; settings: male, beagle
Procedure: The PO (2 mg/kg) dose solution of micronized LA1 was prepared in 0.1% Tween-80 0.5% (w/v) and methyl cellulose in water.
The objective of the study was to investigate the preclinical pharmacokinetic profile of LA1 (micronized powder) in Beagle dog. To delineate the plasma concentration vs. time curve and characterize the relevant pharmacokinetic parameters to generate data on the PK properties viz., bioavailability, half-life (b1/2), volume of distribution, Cmax, Tmax, AUC and elimination rate constant of LA1 in Beagle dog.
LA1 was a coarse material which was micronized using laboratory scale ball mill. […] The micronized LA1 was recovered, weighed and stored in glass container at room temperature. For intravenous drug administration, LA1 excipient compatibility assay for dosing in dogs were carried out.
In brief, a known amount of LA1 was loaded to a cylindrical capped container made of stainless steel followed by addition of stainless steel balls. The ball mills were rotated on their axis for total of 60 minutes (6 cycles X 10 minutes). The micronized LA1 was recovered, weighed and stored in glass bottle at room temperature.
Test system: Healthy Beagle dog weighing 10-12 kg (age 10 months), males were used for the study. Crossover design was adopted for the experiments wherein 02 dogs were used in the study for oral and intravenous administration. Both the animals were housed stainless steel cage provided with a hopper to hold pellet feed and a separate water hopper. Temperature and humidity was maintained at 22±3° C. and 40-70%, respectively. The illumination was controlled to give a sequence of 12 h light and 12 h dark cycle. All the animals were adapted to the experimental conditions for at least 5 days prior to dosing. All animals were provided with Pedigree™ standard pellet feed, except for 10 to 12 h before treatment and 4 h after the drug administration. Water was provided ad libidum.
Formulation and drug administration: Exactly 90 mg of the test item LA1 (micronized powder) was weighed and transferred to a mortar and briefly triturated with pestle. Small volume of vehicle [0.5% (w/v) Carboxy methyl cellulose with 0.1% Tween-80] in water was then added slowly with continuous trituration until a uniform suspension was obtained. The content was then transferred into the measuring cylinder. The mortar was rinsed till the complete transfer of test item into the measuring cylinder was ensured. The final volume was then made up to 225 mL with vehicle to get a uniform suspension with desired concentration of 0.4 mg/mL. Dosing formulations were given by oral gavage at a dose volume not exceeding 5 mL/kg.
Intravenous drug formulation: Hemolysis assay using dog whole blood was employed to assess the damage of red blood cells for selection of excipient for intravenous dosing. […] Exactly 22.5 mg of the test item (micronized powder) was weighed into a graduated tube. 2.25 mL of DMSO was added drop wise and mixed by vortex. Then, 40.50 mL of Polyethylene glycol 400 (PEG-400) was added in two to three fragments and vortex intermittently. Then 2.25 mL Ethanol was added drop wise and vortex to get clear solution. The formulation was subjected to ultra-sonication for 5 minutes.
Sample collection: Serial method was used for blood sampling. Blood samples were collected as mentioned in the study design section (7). The blood sample (−1.5 mL) was collected from saphenous vein into labeled tubes, containing 2% w/v K2EDTA solution, as an anticoagulant.

[8] = tested on: murine melanoma B16-F10 tumors; test: Murine melanoma B16F10 allograft efficacy (Example 20); format: in vivo, C57BL/6 mice
[9] = Aqueous solubility by equilibration, HPLC analysis; format: physicochemical; settings: for Aq solub: water, ambient temperature, slurried 4-5 days, corrected for weight of counter-ion
Procedure: An aliquot of the UHQ water test solvent (1 mL) was added to an accurately weighed sample of the LA1 salts and agitated at ambient temperature for a period of 4 days. A sample was withdrawn, filtered through a […], and analyzed by HPLC. HPLC was used to determine aqueous equilibrium solubility at ambient temperature. […] Samples were slurried in water for 4-5 days before analysis.

[10] = Sprague Dawley, in vivo, PO 2 mg/kg
[11] = after slurrying in water 4-5 days

adenosine A2A receptor, sequence (P29274 whole entry): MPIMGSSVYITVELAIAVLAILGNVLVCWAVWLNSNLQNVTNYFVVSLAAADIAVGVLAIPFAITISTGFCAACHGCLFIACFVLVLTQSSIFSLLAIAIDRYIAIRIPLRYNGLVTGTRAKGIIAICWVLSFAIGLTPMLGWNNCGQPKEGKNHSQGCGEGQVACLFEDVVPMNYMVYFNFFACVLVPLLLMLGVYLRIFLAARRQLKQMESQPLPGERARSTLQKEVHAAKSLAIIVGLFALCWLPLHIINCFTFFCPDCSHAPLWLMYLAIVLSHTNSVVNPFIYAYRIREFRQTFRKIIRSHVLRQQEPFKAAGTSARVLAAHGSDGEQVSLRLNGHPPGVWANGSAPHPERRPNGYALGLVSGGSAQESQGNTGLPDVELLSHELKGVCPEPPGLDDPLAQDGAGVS

efficacy in glucocorticoid receptor agonist assay [2]: shown efficacy
efficacy in adenosine A2A receptor agonist assay [3]: shown efficacy
Rat Cl ([4]; PO - 2 mg/kg table): 11.1 mL/min/kg
Vss ([4]; PO - 2 mg/kg table): 0.59 L
AUC [4, 10]: 8.7 µM·h
MRT [4, 10]: 3.49 h
half-life [4, 10]: 2.03 h
bioavailability ([4]; Sprague Dawley, in vivo, PO 2 mg/kg, read-out: Rat F %): 15.1%
Dog Cl [7]: 2.1 mL/min/kg
Dog F % (absolute oral bioavailability) [7]: 50%
AUC ([7]; dog, po, 2 mg/kg): 6.1 µM·h
Tmax ([7]; dog, po, 2 mg/kg): 4 h
AUC0-t ([7]; dog, po, 2 mg/kg, AUC0-12): 2570 ng·h/mL
Cmax ([7]; dog, po, 2 mg/kg, Cmax (peak concentration)): 685 ng/mL
half-life ([7]; dog, po, 2 mg/kg, t1/2 (hr), oral half-life): ~2 h
SMILES: O=C(O)c1ccc(-c2ccc(/C=C3\SC(=S)N(Cc4ccccc4)C3=O)o2)cc1 [LA1, (Z)-4-(5-((3-benzyl-4-oxo-2-thioxothiazolidin-5-ylidene)methyl)furan-2-yl)benzoic acid]
recruitment of leukocytes during acute peritonitis [1]: reduce recruitment of leukocytes
renal ischemia/reperfusion injury [5]: reduce renal ischemia/reperfusion injury
neointimal thickening upon vascular injury [6]: reduce neointimal thickening

Appearance [9, 11]: Darker red color
Soln pH [9, 11]: 8
HPLC purity (%) ([9]; after slurrying in water 4-5 days (chemical stability)): 75.51%
Aq solub ([9]; listed as choline): 7.052 mg/mL
Aq solub ([9]; listed as choline salt): 7.1 mg/mL
SMILES: O=C(O)c1ccc(-c2ccc(/C=C3\SC(=S)N(Cc4ccccc4)C3=O)o2)cc1 [LA1 choline salt]
growth inhibition of B16-F10 tumors as compared to vehicle control ([8]; 3-100 mg/kg orally): 43-68%
tumor volume ([8]; 3-100 mg/kg, FIG. 24): decreased tumor volume in a dose dependent manner

Reference: US10723726B2, “Solid forms of (Z)-4-(5-((3-benzyl-4-oxo-2-thioxothiazolidin-5-ylidene)methyl)furan-2-yl)benzoic acid” (GB006, INC., priority 2015, dated 2020)
